Measured values from ChEMBL document CHEMBL5576154, “Targeted suppression of oral squamous cell carcinoma by pyrimidine-tethered quinoxaline derivatives” (RSC Med Chem, 2024).

How the values were obtained:
Pyruvate kinase PKM = Pyruvate kinase PKM (Homo sapiens, UniProt P14618); experiment: Activation of PKM2 (unknown origin) by LDH enzyme coupled assay
[1] = Antiproliferative activity against OSCC (unknown origin); type: functional, cell-based; conditions: Oral cancer cell
[2] = Cytotoxicity against normal epithelial cells (unknown origin) incubated for 24 hrs by Alamar blue assay; type: toxicity, cell-based, Epithelial cell
CAL-27 [3] = experiment: Cytotoxicity against human CAL-27 cells incubated for 24 hrs by Alamar blue assay; conditions: CAL-27, 24 h
CAL-27 [4] = experiment: Induction of apoptosis in human CAL-27 cells assessed as viable cells at IC50 concentration incubated for 24 hrs by Annexin V-FITC/PI staining based flow cytometry analysis (reference value: 97.36%); type: functional
[5] = target: Vascular endothelial growth factor receptor 2 (Homo sapiens, UniProt P35968); experiment: Inhibition of human VEGFR2 by ELISA
Chain of Vascular endothelial growth factor receptor 2 (P35968 whole entry): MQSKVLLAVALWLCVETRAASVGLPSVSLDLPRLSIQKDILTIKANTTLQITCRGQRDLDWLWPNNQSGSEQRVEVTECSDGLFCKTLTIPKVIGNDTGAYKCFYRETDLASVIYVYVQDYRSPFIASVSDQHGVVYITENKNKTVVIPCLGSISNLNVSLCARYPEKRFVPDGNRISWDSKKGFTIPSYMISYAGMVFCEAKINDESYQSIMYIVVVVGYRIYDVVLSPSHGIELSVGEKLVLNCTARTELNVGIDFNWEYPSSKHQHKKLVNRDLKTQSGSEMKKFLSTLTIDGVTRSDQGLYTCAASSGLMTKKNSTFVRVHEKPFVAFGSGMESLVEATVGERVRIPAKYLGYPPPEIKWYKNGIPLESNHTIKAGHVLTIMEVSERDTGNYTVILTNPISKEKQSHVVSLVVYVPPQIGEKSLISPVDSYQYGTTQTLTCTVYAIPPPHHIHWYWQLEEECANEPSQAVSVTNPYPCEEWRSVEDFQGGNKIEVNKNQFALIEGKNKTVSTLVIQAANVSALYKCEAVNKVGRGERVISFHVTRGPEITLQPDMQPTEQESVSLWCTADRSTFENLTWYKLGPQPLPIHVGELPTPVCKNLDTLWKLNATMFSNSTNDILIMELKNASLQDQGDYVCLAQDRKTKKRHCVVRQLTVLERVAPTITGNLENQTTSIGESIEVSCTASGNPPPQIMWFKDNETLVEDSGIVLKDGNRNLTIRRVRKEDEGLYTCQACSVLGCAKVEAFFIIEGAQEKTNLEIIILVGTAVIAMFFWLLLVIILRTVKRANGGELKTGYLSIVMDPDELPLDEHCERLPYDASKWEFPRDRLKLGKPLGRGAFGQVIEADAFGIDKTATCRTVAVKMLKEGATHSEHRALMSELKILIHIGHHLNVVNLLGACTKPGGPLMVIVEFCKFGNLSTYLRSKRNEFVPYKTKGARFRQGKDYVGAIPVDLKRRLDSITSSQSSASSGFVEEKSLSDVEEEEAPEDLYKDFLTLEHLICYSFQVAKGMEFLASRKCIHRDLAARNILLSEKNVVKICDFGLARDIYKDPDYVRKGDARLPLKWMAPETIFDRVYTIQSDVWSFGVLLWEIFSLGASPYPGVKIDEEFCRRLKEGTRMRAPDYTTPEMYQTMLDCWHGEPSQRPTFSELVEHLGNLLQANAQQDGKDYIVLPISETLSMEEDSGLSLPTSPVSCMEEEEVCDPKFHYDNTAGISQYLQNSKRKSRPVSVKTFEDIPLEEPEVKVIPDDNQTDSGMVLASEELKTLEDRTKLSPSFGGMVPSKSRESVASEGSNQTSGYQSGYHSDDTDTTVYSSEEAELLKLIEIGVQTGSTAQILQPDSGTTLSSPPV

Chain of Pyruvate kinase PKM (P14618 whole entry): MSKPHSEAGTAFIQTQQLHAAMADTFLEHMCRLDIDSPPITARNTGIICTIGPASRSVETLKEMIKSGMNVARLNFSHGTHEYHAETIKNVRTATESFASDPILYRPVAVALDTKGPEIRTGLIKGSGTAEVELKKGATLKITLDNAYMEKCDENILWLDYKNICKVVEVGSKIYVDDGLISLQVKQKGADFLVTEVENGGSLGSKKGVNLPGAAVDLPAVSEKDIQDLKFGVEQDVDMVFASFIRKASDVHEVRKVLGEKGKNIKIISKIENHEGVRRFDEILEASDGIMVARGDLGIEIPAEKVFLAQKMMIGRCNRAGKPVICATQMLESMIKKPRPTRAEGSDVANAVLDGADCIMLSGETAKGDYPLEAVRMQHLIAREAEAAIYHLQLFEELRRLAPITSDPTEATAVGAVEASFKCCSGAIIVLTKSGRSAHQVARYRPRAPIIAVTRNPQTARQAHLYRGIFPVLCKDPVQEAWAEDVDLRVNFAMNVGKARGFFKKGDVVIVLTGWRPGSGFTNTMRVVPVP

| SMILES | IC50 at 24 h [2] [µM] | IC50 (CAL-27 [3]) [µM] | other results |
| --- | --- | --- | --- |
| O=S(=O)(c1ccc2c(c1)OCCO2)N1CCN(S(=O)(=O)c2c(F)cccc2F)CC1 | – | – | EC50 (Pyruvate kinase PKM): 0.241 µM |
| COc1ccc(OC)c(C(=O)/C=C/c2ccc3nccnc3c2)c1 | – | – | IC50 [1]: 7.81 µM |
| Clc1cc2ncc(-c3cnc4ncccn34)nc2cc1Cl | 15.8 | 25.3 | – |
| O=C(c1ccccc1)c1ccc2ncc(-c3cnc4ccccn34)nc2c1 | 24.9 | 14.6 | – |
| c1ccc2nc(-c3cnc4ccccn34)cnc2c1 | – | > 100 | – |
| FC(F)(F)c1ccc(-c2ccn3c(-c4cnc5ccccc5n4)cnc3n2)cc1 | – | > 100 | – |
| Cc1ccc(-c2ccn3c(-c4cnc5ccccc5n4)cnc3n2)cc1 | – | 64.8 | – |
| c1ccc2nc(-c3cnc4ncccn34)cnc2c1 | – | > 100 | – |
| CS(=O)(=O)c1ccc(-c2ccn3c(-c4cnc5ccccc5n4)cnc3n2)cc1 | – | > 100 | – |
| Brc1ccc2ncc(-c3cnc4ncccn34)nc2c1 | 15.2 | 21.6 | – |
| Clc1ccc(-c2ccn3c(-c4cnc5ccccc5n4)cnc3n2)cc1 | – | – | Activity (CAL-27 [4]): 79.07% |
| Clc1ccc2ncc(-c3cnc4ncccn34)nc2c1 | – | > 100 | – |
| Clc1ccc2ncc(-c3cnc4ccccn34)nc2c1 | 19.2 | 12.8 | – |
| Cc1nc2ccccc2n(CC(=O)Nc2ccc(C(=O)Nc3cccc(Cl)c3)cc2)c1=O | – | – | IC50 [5]: 0.0027 µM |
| Clc1ccccc1-c1ccn2c(-c3cnc4ccccc4n3)cnc2n1 | 133 | 13.7 | – |
| O=C(c1ccccc1)c1ccc2ncc(-c3cnc4ncccn34)nc2c1 | 16.7 | 17 | – |
| Cc1ccc2ncc(-c3cnc4ccccn34)nc2c1 | 22.5 | 18.5 | – |
| O=[N+]([O-])c1ccc2ncc(-c3cnc4ccccn34)nc2c1 | 20.8 | 27.2 | – |
| c1ccc(-c2ccn3c(-c4cnc5ccccc5n4)cnc3n2)cc1 | 47.5 | 10.3 | – |
| Fc1ccc(-c2ccn3c(-c4cnc5ccccc5n4)cnc3n2)cc1 | – | > 100 | – |
| Fc1ccccc1-c1ccn2c(-c3cnc4ccccc4n3)cnc2n1 | – | > 100 | – |
| Fc1ccc2ncc(-c3cnc4ncccn34)nc2c1 | – | > 100 | – |
| Clc1ccc(-c2ccn3c(-c4cnc5ccccc5n4)cnc3n2)c(Cl)c1 | – | > 100 | – |
| Fc1ccc2ncc(-c3cnc4ccccn34)nc2c1 | – | > 100 | – |
| Clc1cc2ncc(-c3cnc4ccccn34)nc2cc1Cl | 23.9 | 15.1 | – |
| Brc1ccc2ncc(-c3cnc4ccccn34)nc2c1 | 20.9 | 16 | – |
| O=[N+]([O-])c1ccc2ncc(-c3cnc4ncccn34)nc2c1 | 18.3 | 19.7 | – |
| Cc1ccc2ncc(-c3cnc4n3C=C=C=N4)nc2c1 | – | > 100 | – |
